The values below come from patent US7855209B2, “Allosteric modulators of the A1 adenosine receptor” (King Pharmaceuticals Research and Development, Inc., priority 2006, dated 2010).

The target in data set [1] is T1, human A1-adenosine receptor (Homo sapiens, UniProt P30542).
T1 construct: expressed in transfected cells; host or cells: CHO cells (hCHO-A1 clone)
T1 sequence (P30542 1-326): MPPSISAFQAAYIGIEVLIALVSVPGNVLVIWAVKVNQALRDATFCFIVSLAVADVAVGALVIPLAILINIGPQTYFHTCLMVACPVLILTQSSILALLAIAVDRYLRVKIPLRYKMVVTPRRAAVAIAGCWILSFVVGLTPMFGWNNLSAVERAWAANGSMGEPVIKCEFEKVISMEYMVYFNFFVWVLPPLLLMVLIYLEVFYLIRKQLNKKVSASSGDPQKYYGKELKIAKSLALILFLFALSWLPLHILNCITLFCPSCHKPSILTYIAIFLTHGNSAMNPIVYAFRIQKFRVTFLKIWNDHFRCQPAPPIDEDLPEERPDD
Description: Functional assay measuring the cAMP level in CHO cells expressing the human A1-adenosine receptor. Format: cell-based. Here is the method: Measurement of cAMP Enhancement in CHO Cells (Functional Assay):
Allosteric enhancement is measured as the action of a test compound at different concentrations (0.01, 0.1, 1 and 10 μM) to reduce the cAMP content of hCHO-A1 cells. To initiate an experiment, growth medium is removed from the 12-well plates and cells are washed once with warm Hanks' buffered saline. The wash solution is then removed and replaced with fresh Hanks' solution containing forskolin (1 μM), rolipram (20 μM), N^6-cyclopentyladenosine (CPA, 0.01 nM), adenosine deaminase (2 U/mL), and the test compound. Forskolin is used to stimulate the activity of adenylyl cyclase, rolipram to inhibit cAMP phosphodiesterase, adenosine deaminase to degrade endogenous adenosine, and CPA to cause a small increase of the number of activated adenosine receptors. […] The content of cAMP in acidified extracts of cells is determined by radioimmunoassay as previously described (Kollias-Baker et al. J. Pharmacol. Exp. Ther. 1997, 281, 761-768). Because the magnitude of the effects of allosteric modulators on hCHO-A1 cells change subtly with passage number and differ slightly among different aliquots of cells, the actions of the test compounds and the action of a reference compound (PD 81,723) are assessed in each experiment. […]

Data set [2] concerns the target T1, human A1-adenosine receptor. Description: Saturation binding of [3H]CCPA to hCHO-A1 membranes (BMAX). Here is the method: Membrane Preparation from CHO Cells Transfected with the Human Recombinant A1, A2A and A3 Adenosine Receptors:
The hCHO-A1, hCHO-A2A and hCHO-A3 cell clones are grown adherently and maintained in Dulbecco's modified Eagle's medium with nutrient mixture F12, containing 10% fetal calf serum, penicillin (100 U/mL), streptomycin (100 μg/mL), L-glutamine (2 mM), geneticine (G418, 0.2 mg/mL) at 37° C. in 5% CO2/95% air (Klotz et al. Naunyn-Schmied. Arch Pharm. 1998, 357, 1-9). Cells are split two or three times weekly at a ratio of between 1:5 and 1:10. For membrane preparation the culture medium is removed. […] The protein concentration is determined according to a Bio-Rad method (Bradford, 1976) with bovine albumin as a standard reference. […]
To determine the effect of the compounds of the present invention on the binding to A1, A2A and A3 receptors, membranes from hCHO-A1, hCHO-A2A, hCHO-A3 are incubated in a buffer solution in the absence and in the presence of the examined compounds. […] Bound and free radioactivity are separated by filtering the assay mixture through Whatman GF/B glass fibre filters using a Micro-mate 196 cell harvester (Packard Instrument Company). The filter bound radioactivity was counted on Top Count Microplate Scintillation Counter (efficacy 57%) with Micro-Scint 20. […]

Each structure is given as a SMILES string.

As to `Nc1scc(CN2CCN(c3ccc(Cl)cc3)CC2)c1C(=O)c1ccc(Cl)cc1` [Example 4, {2-Amino-4-[4-((4-chlorophenyl)piperazin-1-yl)methyl]thiophen-3-yl}(4-chlorophenyl)methanone], the concentration for half-maximal inhibition (IC50) (commonly the concentration at which inhibition is half-maximal) in data set [1] is approximately 0.1 µM. The “increase of the BMAX value of the agonist [3H]CCPA” value in data set [2] (at 10 μM concentration, human A1 adenosine receptors) is “up to 600%”.

Regarding `Nc1scc(CN2CCC3(CC2)Oc2cccc(F)c2O3)c1C(=O)c1ccc(Cl)cc1` [Example 60, {2-Amino-4-(4-fluorospiro[benzo[d][1,3]-dioxole-2,4′-piperidine]-1′-ylmethyl)thiophen-3-yl}(4-chlorophenyl)methanone], in data set [2], the “increase in the BMAX value of the agonist [3H]CCPA” value is reported as “about 6 fold”.

As to `Cc1sc(N)c(C(=O)c2ccc(Cl)cc2)c1CN1CCN(c2cccc(F)c2)CC1` [Example 88, {2-Amino-4-[(4-(3-fluorophenyl)piperazin-1-yl)methyl]-5-methylthiophen-3-yl}(4-chlorophenyl)methanone], the melting point (usually the temperature of the solid-liquid transition) lay within 140 to 141 °C.
